# Data published in patent US20230159509A1 (Amathus Therapeutics, Inc., priority 2020, published 2023).
# pEC50: −log10 of the molar value.
# Biological target: T1, TRAP1 enzyme (Homo sapiens, UniProt Q12931)
# T1 construct: 150 nM Trap1 enzyme was incubated with various concentrations of the test compound
# T1 sequence (Q12931 60-704): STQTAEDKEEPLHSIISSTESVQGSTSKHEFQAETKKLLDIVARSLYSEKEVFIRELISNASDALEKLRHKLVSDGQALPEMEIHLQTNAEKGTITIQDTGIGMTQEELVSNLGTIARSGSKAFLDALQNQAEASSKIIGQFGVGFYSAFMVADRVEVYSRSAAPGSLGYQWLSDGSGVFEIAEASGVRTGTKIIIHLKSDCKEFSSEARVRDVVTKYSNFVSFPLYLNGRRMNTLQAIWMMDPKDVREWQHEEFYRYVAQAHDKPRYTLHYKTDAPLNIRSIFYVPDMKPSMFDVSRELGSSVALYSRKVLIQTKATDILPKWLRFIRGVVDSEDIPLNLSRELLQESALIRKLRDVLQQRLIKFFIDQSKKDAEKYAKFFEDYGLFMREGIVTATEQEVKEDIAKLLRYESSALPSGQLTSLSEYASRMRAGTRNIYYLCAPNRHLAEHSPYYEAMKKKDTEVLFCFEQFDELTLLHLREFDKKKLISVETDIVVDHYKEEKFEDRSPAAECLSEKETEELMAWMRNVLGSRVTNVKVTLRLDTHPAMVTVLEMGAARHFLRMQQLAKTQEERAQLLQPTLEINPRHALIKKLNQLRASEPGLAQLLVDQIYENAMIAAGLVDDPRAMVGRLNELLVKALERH
# Experiment: ADP Glo assay of TRAP1 ATPase activity
# Type: biochemical
# Conditions: for pEC50: concentration for half maximal activation, read-out: ADP GLO DRC: GeoMean EC50; for Emax: maximal percent activation, read-out: ADP GLO DRC: Mean Emax
# Experimental: Potency of test compounds to modulate the ATPase activity of TRAP1 enzyme was evaluated using ADP Glo assay. The assay is based on quantification of the ADP generated from ATP in the ATPase reaction. The assay is performed in two steps; first, after the ATPase reaction an equal volume of ADP-Glo™ Reagent is added to terminate the ATPase reaction and deplete the remaining ATP. Second, the Kinase Detection Reagent is added to simultaneously convert ADP to ATP and allow the newly synthesized ATP to be measured using a luciferase/luciferin reaction.
# All the assays were carried out in a 384-well Proxiplate. The buffer used was 25 mM Pipes pH-7.5, 40 mM KCl, 0.05 mM MgCl2, 0.025% BSA, 0.316 mM EGTA, 0.003% Empigen, 0.01% Igepal. 150 nM Trap1 enzyme was incubated with various concentrations of the test compound (0.79 μM-100 μM) at 37° C. for 30 mins (except in blank wells). 20 μM ATP was added to each well to start the reaction. The plate was spun for 1 min at 1200 rpm and then incubated at 37° C. for 60 mins. 5 μl of ADP Glo reagent was added to all the wells and spun the plate for 1 min at 1200 rpm and kept it on a shaker at ambient temperature for 60 mins. 10 μl of kinase detection mix was added to all the wells and the plate was read for Luminescence at 495 nm. The amount of ADP released was estimated from ATP/ADP standard curve generated at the same experimental conditions. Emax (Maximal percent activation) and EC50 (concentration for half maximal activation) were estimated by fitting the dose response data to a sigmoidal curve fitting equation using Graphpad Prism software V. 8.
SMILES,pEC50,Emax [%]
"COc1ncc(NC(=O)c2ncc(-c3ccccc3)o2)cc1S(=O)(=O)Nc1c(C#N)cccc1C(F)(F)F [compound 1358, N-(5-(N-(2-cyano-6-(trifluoromethyl)phenyl)sulfamoyl)-6-methoxypyridin-3-yl)-5-phenyloxazole-2-carboxamide]",4.00 to 4.70,200 to 300
"COc1ncc(NC(=O)c2cn(C)c3ncccc23)cc1S(=O)(=O)Nc1ccc(Cl)cc1 [compound 1359, N-(5-(N-(4-chlorophenyl)sulfamoyl)-6-methoxypyridin-3-yl)-1-methyl-1H-pyrrolo [2,3-b]pyridine-3-carboxamide]",4.00 to 4.70,119 to 159
"O=C(Nc1cc(S(=O)(=O)Nc2ccc(Cl)cc2)ccn1)c1cnc(-c2ccccc2)[nH]1 [compound 1361, N-(4-(N-(4-chlorophenyl)sulfamoyl)pyridin-2-yl)-2-phenyl-1H-imidazole-5-carboxamide]",4.70 to 5.00,200 to 300
"COc1ncc(NC(=O)c2ccnc3c2OCCC3)cc1S(=O)(=O)Nc1c(C)cccc1C [compound 1364, N-(5-(N-(2,6-dimethylphenyl)sulfamoyl)-6-methoxypyridin-3-yl)-3,4-dihydro-2H-pyrano[3,2-b]pyridine-8-carboxamide]",4.00 to 4.70,> 300
"COc1ncc(NC(=O)c2cccc3ocnc23)cc1S(=O)(=O)Nc1c(C)cccc1C [compound 1366, N-(5-(N-(2,6-dimethylphenyl)sulfamoyl)-6-methoxypyridin-3-yl)benzo[d]oxazole-4-carboxamide]",> 5.00,200 to 300
"COc1ncc(NC(=O)c2cccc3ncoc23)cc1S(=O)(=O)Nc1c(C)cccc1C [compound 1367, N-(5-(N-(2,6-dimethylphenyl)sulfamoyl)-6-methoxypyridin-3-yl)benzo[d]oxazole-7-carboxamide]",4.00 to 4.70,> 300
"COc1ncc(NC(=O)c2ncc(-c3ccccc3)o2)cc1S(=O)(=O)Nc1c(F)cccc1C(F)(F)F [compound 1377, N-(5-(N-(2-fluoro-6-(trifluoromethyl)phenyl)sulfamoyl)-6-methoxypyridin-3-yl)-5-phenyloxazole-2-carboxamide]",4.00 to 4.70,160 to 199
"COc1ncc(NC(=O)c2cccc3c2OC(C)(C)C3)cc1S(=O)(=O)Nc1c(C)cccc1C [compound 1379, N-(5-(N-(2,6-dimethylphenyl)sulfamoyl)-6-methoxypyridin-3-yl)-2,2-dimethyl-2,3-dihydrobenzofuran-7-carboxamide]",4.00 to 4.70,200 to 300
"COc1ncc(NC(=O)c2cc3c(C)nn(C)c3s2)cc1S(=O)(=O)Nc1c(C)cccc1C [compound 1380, N-(5-(N-(2,6-dimethylphenyl)sulfamoyl)-6-methoxypyridin-3-yl)-1,3-dimethyl-1H-thieno[2,3-c]pyrazole-5-carboxamide]",> 5.00,> 300
"COc1ncc(NC(=O)c2csc(-c3ccccc3)n2)cc1S(=O)(=O)Nc1ccc(Cl)nc1C [compound 1382, N-(5-(N-(6-chloro-2-methylpyridin-3-yl)sulfamoyl)-6-methoxypyridin-3-yl)-2-phenylthiazole-4-carboxamide]",4.00 to 4.70,200 to 300
"COc1ncc(NC(=O)c2csc(-c3ccccc3)n2)cc1S(=O)(=O)Nc1ncc(Cl)cn1 [compound 1383, N-(5-(N-(5-chloropyrimidin-2-yl)sulfamoyl)-6-methoxypyridin-3-yl)-2-phenylthiazole-4-carboxamide]",4.00 to 4.70,> 300
"COc1ncc(NC(=O)c2csc(-c3ccccc3)n2)cc1S(=O)(=O)Nc1ccc(Cl)cn1 [compound 1385, N-(5-(N-(5-chloropyridin-2-yl)sulfamoyl)-6-methoxypyridin-3-yl)-2-phenylthiazole-4-carboxamide]",4.70 to 5.00,160 to 199
"COc1cccc(OC)c1NS(=O)(=O)c1cc(NC(=O)c2csc(-c3ccccc3)n2)cnc1OC [compound 1386, N-(5-(N-(2,6-dimethoxyphenyl)sulfamoyl)-6-methoxypyridin-3-yl)-2-phenylthiazole-4-carboxamide]",> 5.00,200 to 300
"COc1ncc(NC(=O)c2csc(-c3ccccc3)n2)cc1S(=O)(=O)Nc1c(C)cc(Cl)cc1C [compound 1388, N-(5-(N-(4-chloro-2,6-dimethylphenyl)sulfamoyl)-6-methoxypyridin-3-yl)-2-phenylthiazole-4-carboxamide]",4.70 to 5.00,119 to 159
"COc1ncc(NC(=O)c2csc(-c3ccccc3)n2)cc1S(=O)(=O)Nc1c(C)cc(F)cc1C [compound 1389, N-(5-(N-(4-fluoro-2,6-dimethylphenyl)sulfamoyl)-6-methoxypyridin-3-yl)-2-phenylthiazole-4-carboxamide]",> 5.00,119 to 159
"Cc1cnc(NC(=O)c2ncc(-c3ccccc3)o2)cc1S(=O)(=O)Nc1ccc(Cl)cc1 [compound 1390, N-(4-(N-(4-chlorophenyl)sulfamoyl)-5-methylpyridin-2-yl)-5-phenyloxazole-2-carboxamide]",4.70 to 5.00,160 to 199
"CCc1cccc(C)c1NS(=O)(=O)c1cc(NC(=O)c2csc(-c3ccccc3)n2)cnc1OC [compound 1393, N-(5-(N-(2-ethyl-6-methylphenyl)sulfamoyl)-6-methoxypyridin-3-yl)-2-phenylthiazole-4-carboxamide]",> 5.00,119 to 159
"COc1ncc(NC(=O)c2cccc3ncn(C)c23)cc1S(=O)(=O)Nc1c(C)cccc1C [compound 1394, N-(5-(N-(2,6-dimethylphenyl)sulfamoyl)-6-methoxypyridin-3-yl)-1-methyl-1H-benzo[d]imidazole-7-carboxamide]",4.00 to 4.70,160 to 199
"COc1ncc(NC(=O)c2cn(C)c3ncccc23)cc1S(=O)(=O)Nc1c(C)cccc1C [compound 1395, N-(5-(N-(2,6-dimethylphenyl)sulfamoyl)-6-methoxypyridin-3-yl)-1-methyl-1H-pyrrolo[2,3-b]pyridine-3-carboxamide]",4.00 to 4.70,200 to 300
COc1ncc(NC(=O)c2scc(C)c2Cl)cc1S(=O)(=O)Nc1c(C)cccc1C [compound 1398],4.70 to 5.00,160 to 199
"COc1ncc(NC(=O)c2ccc3nc(C)sc3c2)cc1S(=O)(=O)Nc1c(C)cccc1C [compound 1400, N-(5-(N-(2,6-dimethylphenyl)sulfamoyl)-6-methoxypyridin-3-yl)-2-methylbenzo[d]thiazole-6-carboxamide]",4.70 to 5.00,200 to 300
"COc1ncc(NC(=O)c2cccc(-c3noc(C)n3)c2)cc1S(=O)(=O)Nc1c(C)cccc1C [compound 1401, N-(5-(N-(2,6-dimethylphenyl)sulfamoyl)-6-methoxypyridin-3-yl)-3-(5-methyl-1,2,4-oxadiazol-3-yl)benzamide]",4.70 to 5.00,160 to 199
"COc1ncc(NC(=O)c2ccc(Cn3cc(Cl)cn3)cc2)cc1S(=O)(=O)Nc1c(C)cccc1C [compound 1402, 4-((4-chloro-1H-pyrazol-1-yl)methyl)-N-(5(N (2,6dimethylphenyl)sulfamoyl)-6-methoxypyridin-3-yl)benzamide]",4.70 to 5.00,160 to 199
"COc1ncc(NC(=O)c2cnc3n2CCCC3)cc1S(=O)(=O)Nc1c(C)cccc1C [compound 1404, N-(5-(N-(2,6-dimethylphenyl)sulfamoyl)-6-methoxypyridin-3-yl)-5,6,7,8-tetrahydroimidazo[1,2-a]pyridine-3-carboxamide]",4.00 to 4.70,> 300
